Paper PMC10354055, “An optimized Nurr1 agonist provides disease-modifying effects in Parkinson’s disease models” (Nature Communications, 2023)
Several values for one entry are separate records, joined by “and”; a condition that tells them apart may be missing. Equal values may be shown once. Read-outs that look alike come from different tables or passages of the source.

Legend:
TNFα gene = experiment: LPS-induced TNFα gene expression in BV2 cells, qRT-PCR; format: cell-based, mouse; conditions: for Relative TNFα expression (% of control): Fig. S6, LPS; for EC50: Mus musculus, BV-2
Description: SK-N-BE(2)C human neuroblastoma, BV2 mouse microglia (ATCC), HeLa and MN9D cell lines were cultured in Dulbecco’s Modified Eagle Medium (DMEM) supplemented with 10% fetal bovine serum (FBS) and 100 U /ml penicillin and 100 μg /ml streptomycin. The murine MN9D dopaminergic cell line was kindly provided by Drs. Michael Zigmond and Juliann Jaumotte from the University of Pittsburgh. The N27-A rat dopaminergic cell line was kindly provided by Dr. Curt Freed from the University of Colorado School of Medicine. […] For transactivity assay, SK-N-BE(2)C and N27-A cell lines were transfected with pCMV-fNurr1, pGAL-Nurr1(LBD), pGAL-Nor1(LBD) or pGAL-Nur77(LBD) and reporter construct (p4xNL3-Luc for fNurr1 or p8xUAS-Luc for LBD constructs). pRSV-β-gal was co-transfected as an internal control. Cells were lysed in a lysis buffer (25 mM Tris-phosphate (pH 7.8), 2 mM DTT, 2 mM DCTA (1,2-diaminocyclohexane-N,N,N′,N′-tetraacetic acid), 10% glycerol, and 1% Triton X-100) 24 h after transfection, followed by adding firefly luciferase substrate for luminescence detection measured by a luminometer plate reader (SpectraMax®; Molecular device). Nurr1 transactivity was normalized to β-galactosidase activity. […] For Nurr1 stability determination, MN9D cells were incubated with MPP^+ (0.5 mM) for 2, 4, 8, 16, 24, and 32 h, or were transduced with lentivirus expressing GFP only or αSyn (wild-type or A53T) then harvested 24, 48 and 72 h after transduction. For autophagolysosome (APL) formation assay, HeLa and N27-A cells were transfected with mRFP-GFP-LC3 (Addgene) using Lipofectamine 2000 (Invitrogen). The medium was changed with starvation medium (Earle’s Balanced Salt Solution; EBSS) 24 h after transfection for autophagy induction.
Total RNA was extracted using the GeneJET RNA Purification Kit (Thermo Fisher Scientific) and 100 ng of RNA was subjected to cDNA synthesis using Invitrogen Superscript cDNA Synthesis Kit (Invitrogen) according to the manufacturer’s protocol. qRT-PCR was performed using a CFX Connect Real-Time System (Bio-Rad) in a 20 μl volume mixture containing 2X SsoAdvanced Universal SYBR Green Supermix (Bio-Rad), 100 ng/μl of forward and reverse primers, and 1 μl of cDNA sample. Gene expression levels were quantified by the 2^∆∆CT method (Ct of target gene—Ct of glyceraldehyde-3-phosphate dehydrogenase (GAPDH). The following primers were used for qRT-PCR: TH forward: 5′-[…]-3′, reverse: 5′-[…]-3′; DAT forward: 5′-[…]-3′, reverse: 5′-[…]-3′; AADC forward: 5′-[…]-3′, reverse: 5′-[…]-3′; VMAT2 forward: 5′-[…]-3′, reverse: 5′-[…]-3′; c-Ret forward: 5′-[…]-3′, reverse: 5′-[…]-3′; TNFα forward: 5′-[…]-3′; reverse: 5′-[…]-3′; GAPDH, forward 5′-[…]-3′, reverse 5′-[…]-3′.

N27-A cells = experiment: Autophagolysosome (APL) formation assay, mRFP-GFP-LC3, N27-A cells; format: cell-based, rat; conditions: for LC3 dots/cell, Red LC3 dots / LC3 dots/cell, Yellow LC3 dots: Figure 3b, mRFP-GFP-LC3, individual cells (30 per treatment)
Description: HeLa and N27-A cells were transfected with tandem mRFP-GFP-LC3 (Addgene) plasmid using Lipofectamine 2000 (Invitrogen) in 24-well plates. After 24 h, cells were incubated in starvation medium (Earle’s Balanced Salt Solution, EBSS; Lonza) containing bafilomycin A1 (BafA1, 10 nM), CQ (20 µM), or 4A7C-301 (1 µM) for 6 h and then fixed with 4% formaldehyde for fluorescence detection. Images were taken using a KEYENCE microscope and red (mRFP) LC3 dots and yellow (mRFP+GFP) LC3 dots were counted from three independent wells for each treatment group. 10 cells were randomly selected and counted from each well and a total of 30 cells were analyzed for each treatment group in both HeLa and N27-A cells.

MPTP-induced male mice = experiment: Pole test, MPTP-induced PD model mice; format: in vivo, mouse; conditions: for Time to traverse: Figure 4c, MPTP-induced mice, individual animal values
Description: MPTP (Sigma-Aldrich) was intraperitoneally (i.p.) injected (30 mg/kg) for 5 days (Day 1-5). […] To test dyskinetic involuntary behavior, an L-DOPA injected group was included, which received 50 mg/kg of L-DOPA and 15 mg/kg of benserazide (Sigma-Aldrich) (i.p.) for 16 days (Day 1–16). All compounds were administered 6 h post-MPTP injection to avoid any effect of compounds on the MPTP metabolism in the brain. Motor and non-motor related behavior tests were performed on the following days as described in Fig. 4a in an assessor- and observer-blinded fashion. Pre-training and baseline setup for motor-related behaviors were performed 3 days prior to the injections. Mice were sacrificed and subjected to immunohistochemistry. Mice were housed at the Animal Care Facilities of McLean Hospital under a 12-h light/12-h dark cycle, ambient temperature and humidity. Animals were handled in accordance with McLean Hospital’s Institutional Animal Care and Use Committee (Protocol #: 2015N000002) and followed National Institutes of Health guidelines.
Mice were trained to descend a vertical metal rod wrapped with rough tape (80 cm high, 12 mm diameter) once per day for 2 days, and then the baseline was measured before the pole test (3 days before the MPTP injection or the first pole test at week 2). Mice were placed head-upward on the pole and total descent time was recorded.

SMILES | Relative TNFα expression (% of control) (TNFα gene; Conc. 0.0001 µM) | Relative TNFα expression (% of control) (TNFα gene; Conc. 0.001 µM) | Relative TNFα expression (% of control) (TNFα gene; Conc. 0.01 µM) | Relative TNFα expression (% of control) (TNFα gene; Conc. 0.1 µM) | Relative TNFα expression (% of control) (TNFα gene; Conc. 1 µM) | EC50 (TNFα gene; suppression of LPS-induced TNFα gene, BV2 cells, read-out: EC50) [nM] | LC3 dots/cell, Red LC3 dots (N27-A cells) | LC3 dots/cell, Yellow LC3 dots (N27-A cells) | motor function, pole test (in words) (MPTP-induced male mice; CQ 40, 4A7C-301 5, L-DOPA 50 mg/kg/day, i.p., 16 days) | Time to traverse (MPTP-induced male mice) | EC50 (TNFα gene) [nM] | autophagy process (in words) (N27-A cells; N27-A, EBSS, CQ 20 µM, 4A7C-301 1 µM)
CCN1CCN(c2cc(N3CCN(CC)CC3)nc(NCCNc3ccnc4cc(Cl)ccc34)n2)CC1 [4A7C-301, N^1-(4,6-bis(4-ethylpiperazin-1-yl)pyrimidin-2-yl)-N^2-(7-chloroquinolin-4-yl)ethane-1,2-diamine] | 72.3049 % of control and 70.453 % of control and 74.7916 % of control | 45.7586 % of control and 44.0429 % of control and 42.816 % of control | 26.6218 % of control and 26.6304 % of control and 26.1645 % of control | 25.1791 % of control and 23.3247 % of control and 22.8855 % of control | 21.147 % of control and 21.3464 % of control and 19.5073 % of control | ~1 | 22 dots/cell (5×) and 32 dots/cell and 15 dots/cell and 27 dots/cell (6×) and 21 dots/cell (4×) and 26 dots/cell (2×) and 34 dots/cell and 31 dots/cell (2×) and 19 dots/cell (3×) and 12 dots/cell and 17 dots/cell (2×) and 16 dots/cell and 20 dots/cell | 9 dots/cell (2×) and 10 dots/cell (3×) and 16 dots/cell (2×) and 11 dots/cell (4×) and 20 dots/cell (2×) and 3 dots/cell (2×) and 4 dots/cell (2×) and 5 dots/cell (3×) and 15 dots/cell and 17 dots/cell and 14 dots/cell (3×) and 6 dots/cell (2×) and 7 dots/cell and 2 dots/cell and 12 dots/cell | significantly rescued | 9.46 s and 8.08 s and 8.64 s and 7.97 s and 6.34 s and 6.11 s and 6.58 s and 5.5 s and 7.12 s | – | –
CCN(CC)CCCC(C)Nc1ccnc2cc(Cl)ccc12 (stereo not drawn) [CQ, chloroquine] | – | – | – | – | – | – | 6 dots/cell (4×) and 7 dots/cell (5×) and 11 dots/cell (6×) and 10 dots/cell (2×) and 5 dots/cell (3×) and 15 dots/cell (2×) and 4 dots/cell (2×) and 8 dots/cell (2×) and 13 dots/cell and 17 dots/cell and 9 dots/cell and 2 dots/cell | 25 dots/cell (2×) and 30 dots/cell (6×) and 28 dots/cell (3×) and 20 dots/cell and 17 dots/cell (3×) and 21 dots/cell (4×) and 19 dots/cell and 22 dots/cell (2×) and 23 dots/cell (2×) and 18 dots/cell (2×) and 16 dots/cell and 29 dots/cell (2×) and 31 dots/cell | – | 6.3 s and 5.45 s and 6.58 s and 7.09 s and 8.95 s and 7.99 s and 7.69 s and 9.73 s and 9.95 s | ~100 | inhibits
